The results in this text go back to publication PMC5209314, “Purification and characterization of a novel glutamate dehydrogenase from Geotrichum candidum with higher alcohol and amino acid activity” (AMB Express, 2017).

Molecules are shown by their SMILES.

What all share (assay type): biochemical
The target of experiment [1] is T1, glutamate dehydrogenase (GDH) from Geotrichum candidum S12 (Geotrichum candidum, UniProt A0A023RBK5).
T1 construct: identified by PMF similarity to Yaliof17820p (Yarrowia homologue)
T1 sequence (A0A023RBK5 1-452): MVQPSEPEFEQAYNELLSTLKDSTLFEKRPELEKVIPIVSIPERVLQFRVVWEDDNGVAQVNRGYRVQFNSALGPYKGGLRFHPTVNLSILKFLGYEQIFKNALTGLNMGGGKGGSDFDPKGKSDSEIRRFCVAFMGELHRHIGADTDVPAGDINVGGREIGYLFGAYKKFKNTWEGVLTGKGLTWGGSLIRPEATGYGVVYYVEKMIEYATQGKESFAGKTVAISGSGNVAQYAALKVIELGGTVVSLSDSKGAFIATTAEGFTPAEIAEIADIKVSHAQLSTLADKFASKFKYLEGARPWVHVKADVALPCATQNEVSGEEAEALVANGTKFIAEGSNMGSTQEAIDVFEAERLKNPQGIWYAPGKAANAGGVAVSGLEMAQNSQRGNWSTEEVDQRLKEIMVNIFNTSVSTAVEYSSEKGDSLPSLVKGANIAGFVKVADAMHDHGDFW
The experiment can be described thus: activity towards hexanol, GC. The conditions noted are these: read-out: Relative activity (%)^a. The text has this: activity towards hexanol, GC on glutamate dehydrogenase (GDH) from Geotrichum candidum S12

Experiment [2] addresses T1, glutamate dehydrogenase (GDH) from Geotrichum candidum S12. Description: activity towards hexanol, GC. The conditions noted are these: 0.3 mmol/L NAD+, 9.8 mmol/L hexanol, pH 4.0, 30 °C.
Experiment [3] shares this target. The experiment can be described thus: residual activity towards hexanol, GC. The conditions noted are these: read-out: Relative activity (%)^a. The text has this: residual activity towards hexanol, GC on glutamate dehydrogenase (GDH) from Geotrichum candidum S12

For `Nc1ncnc2c1ncn2[C@@H]1O[C@H](COP(=O)(O)OP(=O)(O)O)[C@@H](O)[C@H]1O` [ADP], the activity at 1000 µM in experiment [1] turned out to be 138 ± 3.72%.
Regarding `NC(=O)c1ccc[n+]([C@@H]2O[C@H](COP(=O)(O)OP(=O)(O)OC[C@H]3O[C@@H](n4cnc5c(N)ncnc54)[C@H](O)[C@@H]3O)[C@@H](O)[C@H]2O)c1` [NAD^+], the “activity towards hexanol, GC” value in experiment [2] was “the enzyme could use NADP^+ and NAD^+ as a hydrogen acceptor of hexanol”.
Take `Nc1ncnc2c1ncn2[C@@H]1O[C@H](COP(=O)(O)OP(=O)(O)OP(=O)(O)O)[C@@H](O)[C@H]1O` [ATP]: the activity at 1000 µM in experiment [3] was determined as 14.3 ± 0.84%.
